How the values were obtained:
[1] = tested on: A549 (epithelial cancer cell line); experiment: MTT cell viability assay, A549; format: cell-based; details: Homo sapiens, 48 h, read-out: Antiproliferative Activity IC50 ± SEM, A549
Protocol: (§1) The tested cells were obtained from Shanghai Institute of Biochemistry and Cell Biology of the Chinese Academy of Sciences (Shanghai, China). HeLa and Hep G2 cell lines were cultured in Dulbecco’s modified Eagle’s medium (DMEM; gibco, Life Technologies, Carlsbad, CA, USA) supplemented with 10% fetal bovine serum (FBS; Biological Industries), 100 U/mL penicillin-streptomycin (PS; gibco, Life Technologies, Carlsbad, CA, USA). MCF-7 and A549 cell lines were maintained in RPMI-1640 media (gibco, Life Technologies, Carlsbad, CA, USA) supplemented with 10% FBS and 100 U/mL PS. FaDu cell lines were cultured in minimum essential medium (MEM; Gibco, Life Technologies, Carlsbad, CA, USA) supplemented with 10% FBS and 100 U/mL PS. MCF 10A cell lines were maintained in Mammary MEGM kit (Lonza/Clonetics) supplemented with 100 ng/mL cholera toxin (Sigma, Shanghai, China). Cell lines were grown at 37 °C in a humidified atmosphere of 5% CO2.
(§2) The growth-inhibitory effects against HeLa, Hep G2, MCF-7, FaDu, and A549 cancer cells and normal cell lines MCF 10A were determined by MTT assay. […] Cells were seeded in 96 well plates at a density of 1 × 10^4 cells per well and incubated for 24 h at 37 °C in a humidified atmosphere of 5% CO2. The cells were then incubated with various concentrations of drugs for 48 h in a 5% CO2 incubator at 37 °C. After treatment with 1 mg/mL 3-(4,5-dimethylthiazol-2-yl)-2,5-diphenyltetrazolium bromide (MTT) solution for 4 h, the formazan crystals were dissolved in 100 µL DMSO in each well. Plates were read on a microplate reader (Thermo Varioskan Flash 3001) at 490 nm. The experiment was performed in triplicate. The inhibitory concentration at 50% (IC50) was calculated based on concentration-inhibition relationships via regression using SPSS software (Version 17.0).

[2] = tested on: MCF 10A (normal mammary epithelial cell); experiment: MTT cell viability assay, MCF 10A; format: cell-based; details: Homo sapiens, 48 h, normal cells, read-out: Antiproliferative Activity IC50 ± SEM, MCF 10A
[3] = tested on: HeLa (cervical cancer cell line); experiment: MTT cell viability assay, HeLa; format: cell-based; details: Homo sapiens, 48 h, read-out: Antiproliferative Activity IC50 ± SEM, HeLa
Protocol: as §1, §2

[4] = tested on: Hep G2 (hepatocarcinoma cell line); experiment: MTT cell viability assay, Hep G2; format: cell-based; details: Homo sapiens, HepG2, 48 h, read-out: Antiproliferative Activity IC50 ± SEM, Hep G2
Protocol: as §1, §2

[5] = tested on: MCF-7 (breast cancer cell line); experiment: MTT cell viability assay, MCF-7; format: cell-based; details: Homo sapiens, MCF7, 48 h, read-out: Antiproliferative Activity IC50 ± SEM, MCF-7
Protocol: as §1, §2

[6] = tested on: FaDu (head and neck squamous carcinoma cell line); experiment: MTT cell viability assay, FaDu; format: cell-based, human; details: for IC50: Homo sapiens, FaDu, 48 h, MTT, read-out: Antiproliferative Activity IC50 ± SEM, FaDu; for SI: selectivity index: SI = IC50 (MCF 10A)/IC50 (FaDu)
Protocol: as §1, §2

| Compound | IC50 [1] [µM] | IC50 [2] [µM] | IC50 [3] [µM] | IC50 [4] [µM] | IC50 [5] [µM] | IC50 [6] [µM] | SI: selectivity index [6] |
| --- | --- | --- | --- | --- | --- | --- | --- |
| Cc1nc(C)c(CN(CCN(Cc2nc(C)c(C)nc2C)Cc2nc(C)c(C)nc2C)Cc2nc(C)c(C)nc2C)nc1C [Compound 6a, N^1,N^1,N^2,N^2-Tetrakis((3,5,6-Trimethylpyrazin-2-yl)Methyl)Ethane-1,2-Diamine] | > 100 | 90.3 ± 3.41 | > 100 | > 100 | > 100 | > 100 |  |
| Cc1nc(C)c(CN(CCCN(Cc2nc(C)c(C)nc2C)Cc2nc(C)c(C)nc2C)Cc2nc(C)c(C)nc2C)nc1C [Compound 6b, N^1,N^1,N^3,N^3-Tetrakis((3,5,6-Trimethylpyrazin-2-yl)Methyl)Propane-1,3-Diamine] | > 100 | > 100 | > 100 | > 100 | > 100 | > 100 |  |
| Cc1nc(C)c(CN(CCCCN(Cc2nc(C)c(C)nc2C)Cc2nc(C)c(C)nc2C)Cc2nc(C)c(C)nc2C)nc1C [Compound 6c, N^1,N^1,N^4,N^4-Tetrakis((3,5,6-Trimethylpyrazin-2-yl)Methyl)Butane-1,4-Diamine] | > 100 | > 100 | > 100 | > 100 | > 100 | > 100 |  |
| Cc1nc(C)c(CN(CCCCCCN(Cc2nc(C)c(C)nc2C)Cc2nc(C)c(C)nc2C)Cc2nc(C)c(C)nc2C)nc1C [Compound 6d, N^1,N^1,N^6,N^6-Tetrakis((3,5,6-Trimethylpyrazin-2-yl)Methyl)Hexane-1,6-Diamine] | > 100 | > 100 | > 100 | > 100 | > 100 | > 100 |  |
| Cc1nc(C)c(CN(CCCCCCCCN(Cc2nc(C)c(C)nc2C)Cc2nc(C)c(C)nc2C)Cc2nc(C)c(C)nc2C)nc1C [Compound 6e, N^1,N^1,N^8,N^8-Tetrakis((3,5,6-Trimethylpyrazin-2-yl)Methyl)Octane-1,8-Diamine] | > 100 | 85.4 ± 2.28 | 62.7 ± 4.19 | 50.8 ± 1.35 | 66.36 ± 0.05 | 49.5 ± 1.61 | 1.73 |
| Cc1nc(C)c(CN2CCN(Cc3nc(C)c(C)nc3C)CC2)nc1C [Compound 6h, 1,4-Bis((3,5,6-Trimethylpyrazin-2-yl)Methyl)Piperazine] | > 100 | > 100 | > 100 | > 100 | > 100 | > 100 |  |
| Cc1nc(C)c(CN(CCO)Cc2nc(C)c(C)nc2C)nc1C [Compound 6i, 2-(Bis((3,5,6-Trimethylpyrazin-2-yl)Methyl)Amino)Ethanol] | > 100 | > 100 | > 100 | > 100 | > 100 | > 100 |  |
| Cc1nc(C)c(C(=O)NCCCNC(=O)c2nc(C)c(C)nc2C)nc1C [Compound 8a, N,N′-(Propane-1,3-Diyl)Bis(3,5,6-Trimethylpyrazine-2-Carboxamide)] | > 100 | > 100 | > 100 | > 100 | > 100 | > 100 |  |
| Cc1nc(C)c(C(=O)NCCCCNC(=O)c2nc(C)c(C)nc2C)nc1C [Compound 8b, N,N′-(Butane-1,4-Diyl)Bis(3,5,6-Trimethylpyrazine-2-Carboxamide)] | > 100 | > 100 | > 100 | > 100 | > 100 | > 100 |  |
| Cc1nc(C)c(C(=O)NCCCCCCNC(=O)c2nc(C)c(C)nc2C)nc1C [Compound 8c, N,N′-(Hexane-1,6-Diyl)Bis(3,5,6-Trimethylpyrazine-2-Carboxamide)] | > 100 | 46.6 ± 0.65 | > 100 | > 100 | > 100 | 80.4 ± 1.36 |  |
| Cc1nc(C)c(C(=O)NCCCCCCCCNC(=O)c2nc(C)c(C)nc2C)nc1C [Compound 8d, N,N′-(Octane-1,8-Diyl)Bis(3,5,6-Trimethylpyrazine-2-Carboxamide)] | 6.35 ± 0.05 | 2.69 ± 0.46 | 3.31 ± 0.14 | > 20 | 0.48 ± 0.003 | 0.11 ± 0.03 | 24.45 |
| Cc1nc(C)c(C(=O)NCCCCCCCCCCCCNC(=O)c2nc(C)c(C)nc2C)nc1C [Compound 8f, N,N′-(Dodecane-1,12-Diyl)Bis(3,5,6-Trimethylpyrazine-2-Carboxamide)] | 2.46 ± 0.05 | 0.051 ± 0.021 | 4.96 ± 1.62 | > 20 | 0.158 ± 0.009 | 0.174 ± 0.01 | 0.29 |
| O=C(/C=C/c1ccccc1)NCCCCCCCCNC(=O)/C=C/c1ccccc1 [Compound 9d, (2E,2′E)-N,N′-(Octane-1,8-Diyl)Bis(3-Phenylacrylamide)] | > 20 | > 20 | > 20 | > 20 | > 20 | 1.05 ± 0.091 | >18.98 |
| O=C(/C=C/c1ccccc1)NCCCCCCCCCCNC(=O)/C=C/c1ccccc1 [Compound 9e, (2E,2′E)-N,N′-(Decane-1,10-Diyl)Bis(3-Phenylacrylamide)] | 11.3 ± 0.81 | > 100 | > 100 | > 100 | > 100 |  | >1851.85 |
| O=C(/C=C/c1ccccc1)NCCCCCCCCCCCCNC(=O)/C=C/c1ccccc1 [Compound 9f, (2E,2′E)-N,N′-(Dodecane-1,12-Diyl)Bis(3-Phenylacrylamide)] | > 20 | > 20 | > 20 | > 20 | > 20 | 0.027 ± 0.002 | >740.74 |
| O=C(/C=C/c1ccccc1)OCCCCCCCCOC(=O)/C=C/c1ccccc1 [Compound 9g, Octane-1,8-Diyl (2E,2′E)-Bis(3-Phenylacrylate)] | > 20 | > 20 | > 20 | > 20 | > 20 | > 20 |  |
| O=C(/C=C/c1ccccc1)OCCCCCCCCCCOC(=O)/C=C/c1ccccc1 [Compound 9h, Decane-1,10-Diyl (2E,2′E)-Bis(3-Phenylacrylate)] | > 20 | > 20 | > 20 | > 20 | > 20 | > 20 |  |
| O=C(/C=C/c1ccccc1)OCCCCCCCCCCCCOC(=O)/C=C/c1ccccc1 [Compound 9i, Dodecane-1,12-Diyl (2E,2′E)-Bis(3-Phenylacrylate)] | > 20 | > 20 | > 20 | > 20 | > 20 | > 20 |  |
| O=C(/C=C/c1ccccc1)NCCOCCOCCNC(=O)/C=C/c1ccccc1 [Compound 9j, (2E,2′E)-N,N′-((Ethane-1,2-Diylbis(Oxy))Bis(Ethane-2,1-Diyl))Bis(3-Phenylacrylamide)] | > 20 | > 20 | > 20 | > 20 | > 20 | > 20 |  |
| O=C(/C=C/c1ccccc1)NCCOCCOCCOCCNC(=O)/C=C/c1ccccc1 [Compound 9k, (2E,2′E)-N,N′-(((Oxybis(Ethane-2,1-Diyl))Bis(Oxy))Bis(Ethane-2,1-Diyl))Bis(3-Phenylacrylamide)] | > 20 | > 20 | > 20 | > 20 | > 20 | 4.45 ± 0.208 | >4.50 |
| O=C(/C=C/c1ccccc1)OCCOCCOCCOC(=O)/C=C/c1ccccc1 [Compound 9l, (Ethane-1,2-Diylbis(Oxy))Bis(Ethane-2,1-Diyl) (2E,2′E)-Bis(3-Phenylacrylate)] | > 20 | > 20 | > 20 | > 20 | > 20 | > 20 |  |
| O=C(/C=C/c1ccccc1)OCCOCCOCCOCCOC(=O)/C=C/c1ccccc1 [Compound 9m, ((Oxybis(Ethane-2,1-Diyl))Bis(Oxy))Bis(Ethane-2,1-Diyl) (2E,2′E)-bis(3-Phenylacrylate)] | > 20 | > 20 | > 20 | > 20 | > 20 | > 20 |  |

From article PMC6943434, “Novel Homo-Bivalent and Polyvalent Compounds Based on Ligustrazine and Heterocyclic Ring as Anticancer Agents” (Molecules, 2019)
